Measurements reported in the NIST ThermoML archive (doi:10.1021/je800248w).
Numbers after ± are expanded uncertainties.

Assays:
[1] = molar heat capacity at constant pressure; xn = mol fraction of the nth substance listed; settings: 101.3 kPa, Liquid, Small sample (50 mg) DSC, x1 = 1
[2] = molar heat capacity at constant pressure; settings: 101.3 kPa, Liquid, Small sample (50 mg) DSC

molar heat capacity at constant pressure ([1]; 283.15 K) [J/K/mol]	molar heat capacity at constant pressure ([1]; 293.15 K) [J/K/mol]	molar heat capacity at constant pressure ([1]; 303.15 K) [J/K/mol]	molar heat capacity at constant pressure ([1]; 313.15 K) [J/K/mol]	molar heat capacity at constant pressure ([1]; 323.15 K) [J/K/mol]	molar heat capacity at constant pressure ([1]; 333.15 K) [J/K/mol]	molar heat capacity at constant pressure ([1]; 343.15 K) [J/K/mol]	molar heat capacity at constant pressure ([2]; 283.15 K) [J/K/mol]	molar heat capacity at constant pressure ([2]; 293.15 K) [J/K/mol]	molar heat capacity at constant pressure ([2]; 303.15 K) [J/K/mol]	molar heat capacity at constant pressure ([2]; 313.15 K) [J/K/mol]	molar heat capacity at constant pressure ([2]; 323.15 K) [J/K/mol]	molar heat capacity at constant pressure ([2]; 333.15 K) [J/K/mol]	molar heat capacity at constant pressure ([2]; 343.15 K) [J/K/mol]	SMILES
75 ± 6	75 ± 6	75 ± 6	75 ± 6	75 ± 6	75 ± 6	75 ± 6	–	–	–	–	–	–	–	O [water] + CCn1cc[n+](C)c1.O=S(=O)([O-])C(F)(F)F
–	–	–	–	–	–	–	75 ± 6	75 ± 6	75 ± 6	75 ± 6	75 ± 6	75 ± 6	75 ± 6	O [water]
–	–	–	–	–	–	–	308 ± 25	313 ± 25	320 ± 26	324 ± 26	328 ± 27	332 ± 27	337 ± 27	CCn1cc[n+](C)c1.O=C([O-])C(F)(F)F [1-ethyl-3-methylimidazolium trifluoroacetate]
75 ± 6	75 ± 6	75 ± 6	75 ± 6	75 ± 6	75 ± 6	75 ± 6	–	–	–	–	–	–	–	O [water] + CCOS(=O)(=O)[O-].CCn1cc[n+](C)c1
–	–	–	–	–	–	–	353 ± 29	358 ± 29	366 ± 30	371 ± 30	376 ± 31	380 ± 31	384 ± 31	CCn1cc[n+](C)c1.O=S(=O)([O-])C(F)(F)F [1-ethyl-3-methylimidazolium trifluoromethanesulfonate]
75 ± 6	75 ± 6	75 ± 6	75 ± 6	75 ± 6	75 ± 6	75 ± 6	–	–	–	–	–	–	–	O [water] + CCn1cc[n+](C)c1.O=C([O-])C(F)(F)F
–	–	–	–	–	–	–	365 ± 30	371 ± 30	380 ± 31	386 ± 31	392 ± 32	397 ± 32	403 ± 33	CCOS(=O)(=O)[O-].CCn1cc[n+](C)c1 [1-ethyl-3-methylimidazolium ethyl sulfate]
